Assay results published in ChEMBL document CHEMBL1201862, “PubChem BioAssay data set” (2004).
The source made the active and inactive calls.

Experiments:
[1] = target: T1, Short transient receptor potential channel 4 (Mus musculus, UniProt Q9QUQ5); assay: SAR Analysis for the identification of selective inhibits of the transient receptor potential cation channel C4 (TRPC4): Automated Electrophysiology_2. [Related pubchem assays (depositor defined):AID2256]; format: functional
T1 sequence (Q9QUQ5 whole entry): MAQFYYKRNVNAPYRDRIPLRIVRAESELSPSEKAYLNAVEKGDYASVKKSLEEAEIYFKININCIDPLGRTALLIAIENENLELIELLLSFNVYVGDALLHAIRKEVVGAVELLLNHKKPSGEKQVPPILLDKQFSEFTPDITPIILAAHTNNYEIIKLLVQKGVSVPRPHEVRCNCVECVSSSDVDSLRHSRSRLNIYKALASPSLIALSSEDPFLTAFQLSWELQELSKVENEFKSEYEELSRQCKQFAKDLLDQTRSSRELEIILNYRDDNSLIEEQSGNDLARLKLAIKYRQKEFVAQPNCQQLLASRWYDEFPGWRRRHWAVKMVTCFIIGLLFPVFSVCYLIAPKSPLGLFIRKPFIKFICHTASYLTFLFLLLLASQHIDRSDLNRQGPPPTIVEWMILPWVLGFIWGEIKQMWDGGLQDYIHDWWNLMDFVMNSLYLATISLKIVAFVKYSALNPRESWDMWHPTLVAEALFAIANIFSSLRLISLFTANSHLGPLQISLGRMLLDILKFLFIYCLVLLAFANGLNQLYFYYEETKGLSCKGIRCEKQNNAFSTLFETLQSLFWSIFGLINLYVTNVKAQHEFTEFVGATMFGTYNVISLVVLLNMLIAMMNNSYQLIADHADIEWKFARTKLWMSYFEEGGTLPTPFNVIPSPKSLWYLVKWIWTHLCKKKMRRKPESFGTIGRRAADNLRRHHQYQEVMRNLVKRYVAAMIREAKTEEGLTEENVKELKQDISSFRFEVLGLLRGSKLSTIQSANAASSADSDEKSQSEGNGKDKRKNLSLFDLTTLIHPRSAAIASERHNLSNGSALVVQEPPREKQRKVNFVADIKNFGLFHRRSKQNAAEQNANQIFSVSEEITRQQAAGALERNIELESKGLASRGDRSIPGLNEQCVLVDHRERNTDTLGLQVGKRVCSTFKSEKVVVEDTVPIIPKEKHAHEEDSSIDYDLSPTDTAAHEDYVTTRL

[2] = target: T1, Short transient receptor potential channel 4; assay: potency of mouse TRPC4 calcium flux blockers – cell-based, HEK293 TRPC4/mu-opioid, DAMGO stimulus, Fluo-4, dose response (AID 492994); format: functional
[3] = target: Dual specificity protein kinase CLK1 (Homo sapiens, UniProt P49759); assay: inhibition of human CLK1 activity – biochemical, cherry-picked samples, selectivity assay for Dyrk1A inhibitor project, dose response (AID 588811)
[4] = target: Cyclin-dependent kinase 2 (Homo sapiens, UniProt P24941); assay: inhibition of human CDK2/cyclin A – biochemical, cherry-picked samples, selectivity assay for Dyrk1A inhibitor project, dose response (AID 602127)
Paired box protein Pax-8 = Paired box protein Pax-8 (Homo sapiens, UniProt Q06710); assay: PAX8 transcriptional activity inhibition in RMG-I – RMG-I cells, luciferase, cherry-pick, dose response (AID 687027); format: functional, cell-based;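 also: luciferase reporter driven by Pax8 target thyroperoxidase promoter measured by SteadyGlo luminescence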
BJ [5] = assay: BJ-TERT fibroblast viability loss – cell-based, RAS-independent, luminescence, dose response (AID 1933); format: functional, Homo sapiens; details: Homo sapiens, BJ
[6] = DRD fibroblast viability loss – cell-based, non-viral oncogenic, luminescence, dose response (AID 1934); format: functional; details: Homo sapiens
BJ [7] = assay: BJ-TERT-LT-ST fibroblast viability loss – cell-based, RAS-independent, luminescence, dose response (AID 1935); format: functional, Homo sapiens; details: Homo sapiens, BJ;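 also: BJ fibroblasts immortalized with TERT plus LT and ST oncogenes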
[8] = target: T1, Short transient receptor potential channel 4; assay: block of DAMGO-driven TRPC4 calcium entry – cell-based, HEK293 TRPC4/mu-opioid, Fluo-4 calcium, dose response (AID 434942); format: functional;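 also: potency of inhibitors blocking the TRPC4 calcium response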
[9] = target: T2, DNA repair protein RAD52 homolog (Homo sapiens, UniProt P43351); format: functional, biochemical
T2 sequence (P43351 whole entry): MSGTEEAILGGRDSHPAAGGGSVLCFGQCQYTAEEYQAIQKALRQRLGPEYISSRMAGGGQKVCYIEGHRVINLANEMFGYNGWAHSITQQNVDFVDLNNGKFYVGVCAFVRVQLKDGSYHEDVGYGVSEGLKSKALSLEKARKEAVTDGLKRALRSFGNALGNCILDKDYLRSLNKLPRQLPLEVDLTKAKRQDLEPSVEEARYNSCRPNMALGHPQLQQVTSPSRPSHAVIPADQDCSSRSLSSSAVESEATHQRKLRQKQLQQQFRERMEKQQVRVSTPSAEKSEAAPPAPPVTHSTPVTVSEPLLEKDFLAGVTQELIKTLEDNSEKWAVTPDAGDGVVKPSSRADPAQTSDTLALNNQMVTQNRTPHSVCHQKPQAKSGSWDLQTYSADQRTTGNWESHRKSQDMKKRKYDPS

BJ [10] = assay: growth inhibition of engineered Ras-driven BJ cells – cell-based, alamar blue fluorescence, cherrypicked samples, dose response (AID 2631); format: functional; details: Homo sapiens;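 also: confirmatory dose-response assay in RAS-dependent BJ fibroblasts engineered with TERT, LT and ST, with cytotoxicity read by fluorescence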
[11] = viability loss in HeLa cells – cytotoxicity control for MgcRacGAP inhibitor project, dose response (AID 624300); format: functional
[12] = target: T3, Rac GTPase-activating protein 1 (Homo sapiens, UniProt Q9H0H5); assay: blockers of MgcRacGAP-driven Rac1 GTP hydrolysis – biochemical, ADP Hunter fluorescence, primary and confirmatory, confirmation (AID 624330); format: functional
T3 sequence (Q9H0H5 whole entry): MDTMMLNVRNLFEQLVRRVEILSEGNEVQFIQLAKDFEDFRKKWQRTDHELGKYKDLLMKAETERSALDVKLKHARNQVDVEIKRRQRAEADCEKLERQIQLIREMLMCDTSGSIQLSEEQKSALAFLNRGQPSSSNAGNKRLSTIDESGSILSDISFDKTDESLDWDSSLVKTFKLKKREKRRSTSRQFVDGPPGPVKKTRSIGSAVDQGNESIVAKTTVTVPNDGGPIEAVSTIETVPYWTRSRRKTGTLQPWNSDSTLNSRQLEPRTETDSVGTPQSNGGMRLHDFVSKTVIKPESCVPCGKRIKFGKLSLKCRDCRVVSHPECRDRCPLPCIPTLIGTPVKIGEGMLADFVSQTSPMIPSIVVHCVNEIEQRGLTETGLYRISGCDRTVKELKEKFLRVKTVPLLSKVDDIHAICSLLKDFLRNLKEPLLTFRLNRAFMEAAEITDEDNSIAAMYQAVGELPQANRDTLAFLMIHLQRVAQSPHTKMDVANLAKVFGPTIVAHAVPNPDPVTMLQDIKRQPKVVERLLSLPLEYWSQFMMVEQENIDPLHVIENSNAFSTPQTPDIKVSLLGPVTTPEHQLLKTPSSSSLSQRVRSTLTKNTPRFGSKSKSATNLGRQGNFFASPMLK

BJ [13] = assay: cells; format: functional, cell-based, Homo sapiens; details: Homo sapiens, BJ
[14] = HEK-293T viability loss after treatment – luminescence, T-cell screen hits, cytotoxicity control for TCR NF-kB inhibitor project, dose response (AID 489026); format: functional, cell-based;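 also: cells exposed to compound about 14 hours before the viability readout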
[15] = general cell-killing toxicity readout – plate reader, dry powder samples, cytotoxicity control for PAX8 inhibitor project, dose response (AID 743021); format: functional, cell-based

Paired box protein Pax-8, sequence (Q06710 whole entry): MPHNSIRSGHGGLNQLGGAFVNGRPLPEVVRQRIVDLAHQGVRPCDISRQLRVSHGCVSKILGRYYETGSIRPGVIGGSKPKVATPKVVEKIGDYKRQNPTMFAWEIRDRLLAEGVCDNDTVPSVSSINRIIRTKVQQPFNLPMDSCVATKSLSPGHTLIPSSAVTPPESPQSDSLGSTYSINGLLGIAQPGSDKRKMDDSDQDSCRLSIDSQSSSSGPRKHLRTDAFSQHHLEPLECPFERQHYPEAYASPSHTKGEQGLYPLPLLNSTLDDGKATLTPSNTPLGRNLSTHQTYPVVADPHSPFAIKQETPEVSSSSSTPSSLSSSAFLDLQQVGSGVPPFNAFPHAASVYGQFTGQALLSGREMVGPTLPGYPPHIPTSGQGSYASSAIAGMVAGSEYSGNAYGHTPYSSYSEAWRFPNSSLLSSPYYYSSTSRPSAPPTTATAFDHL
Dual specificity protein kinase CLK1, sequence (P49759 whole entry): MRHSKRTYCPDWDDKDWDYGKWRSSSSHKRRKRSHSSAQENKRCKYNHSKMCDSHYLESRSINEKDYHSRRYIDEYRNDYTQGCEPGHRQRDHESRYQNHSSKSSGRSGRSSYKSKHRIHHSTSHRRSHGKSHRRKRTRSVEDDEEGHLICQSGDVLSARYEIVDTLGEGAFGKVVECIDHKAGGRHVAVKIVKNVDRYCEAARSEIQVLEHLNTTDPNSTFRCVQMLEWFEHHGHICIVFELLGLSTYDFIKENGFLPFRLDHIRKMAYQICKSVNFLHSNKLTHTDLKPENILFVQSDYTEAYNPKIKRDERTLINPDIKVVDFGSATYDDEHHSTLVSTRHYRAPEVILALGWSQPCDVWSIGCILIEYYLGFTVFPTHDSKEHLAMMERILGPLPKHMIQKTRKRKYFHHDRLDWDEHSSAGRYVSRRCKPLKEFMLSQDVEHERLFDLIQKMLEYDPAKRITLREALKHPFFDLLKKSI

CCc1ccc2nc(N3CCCCCC3)cc(C)c2c1
IC50 [1]: 3.3 µM (active) | IC50 [2]: 7.37 µM (active)

Cc1c(-c2ccnc(NCc3cccnc3)n2)sc(=O)n1C
AC50 [3]: 0.116 µM (active) | AC50 [4]: 15.1 µM (active)

Cc1cc(C)c2nc(C)cc(N/N=C/c3ccc(O)cc3)c2c1
AC50 (Paired box protein Pax-8): 9.08 µM (active) | EC50 (BJ [5]): 2.56 µM (inconclusive) | EC50 [6]: 5.11 µM (inconclusive) | EC50 (BJ [7]): 2.78 µM (inconclusive) | EC50 [8]: 5.96 µM (active) | AC50 [9]: 0.939 µM (active) | EC50 (BJ [10]): 0.555 µM (active) | CC50 [11]: 13.3 µM (active) | IC50 [12]: 18.2 µM (active) | EC50 (BJ [13]): 5.87 µM (active) | IC50 [14]: 18.1 µM (active) | AC50 [15]: 50.5 µM (active)
